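Abbreviation: GI50, concentration required for 50% inhibition of growth. Definition used: TGI = concentration required for complete inhibition of growth.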
What was measured:
Test in all cases: inhibition of tumour cell growth, NCI panel, 384-well format
786-0 renal = system: 786-0 renal
A498 renal = system: A498 renal
A549 NSCLC = system: A549 NSCLC
ACHN renal = system: ACHN renal
BT-549 breast = system: BT-549 breast
CAKI-1 renal = system: CAKI-1 renal
CCRF-CEM leukemia = system: CCRF-CEM leukemia
COLO 205 colon = system: COLO 205 colon
DU-145 prostate = system: DU-145 prostate
HCC-2998 colon = system: HCC-2998 colon
HCT-116 colon = system: HCT-116 colon
HCT-15 colon = system: HCT-15 colon
HL-60(TB) leukemia = system: HL-60(TB) leukemia
HOP-62 NSCLC = system: HOP-62 NSCLC
HOP-92 NSCLC = system: HOP-92 NSCLC
HT29 colon = system: HT29 colon
IGROV1 ovarian = system: IGROV1 ovarian
K-562 leukemia = system: K-562 leukemia
KM12 colon = system: KM12 colon
LOX IMVI melanoma = system: LOX IMVI melanoma
M14 melanoma = system: M14 melanoma
MCF7 breast = system: MCF7 breast
MDA-MB-231 breast = system: MDA-MB-231 breast
MDA-MB-435 melanoma = system: MDA-MB-435 melanoma
MDA-MB-468 breast = system: MDA-MB-468 breast
MOLT-4 leukemia = system: MOLT-4 leukemia
NCI-H226 lung = system: NCI-H226 lung
NCI-H23 lung = system: NCI-H23 lung
NCI-H322M lung = system: NCI-H322M lung
NCI-H460 NSCLC = system: NCI-H460 NSCLC
NCI-H522 lung = system: NCI-H522 lung
NCI/ADR-RES ovarian = system: NCI/ADR-RES ovarian
OVCAR-3 ovarian = system: OVCAR-3 ovarian
OVCAR-4 ovarian = system: OVCAR-4 ovarian
OVCAR-5 ovarian = system: OVCAR-5 ovarian
OVCAR-8 ovarian = system: OVCAR-8 ovarian
PC-3 prostate = system: PC-3 prostate
RPMI-8226 leukemia = system: RPMI-8226 leukemia
RXF 393 renal = system: RXF 393 renal
SF-268 CNS = system: SF-268 CNS
SF-295 CNS = system: SF-295 CNS
SF-539 CNS = system: SF-539 CNS
SK-MEL-2 melanoma = system: SK-MEL-2 melanoma
SK-MEL-28 melanoma = system: SK-MEL-28 melanoma
SK-MEL-5 melanoma = system: SK-MEL-5 melanoma
SK-OV-3 ovarian = system: SK-OV-3 ovarian
SN12C renal = system: SN12C renal
SNB-19 CNS = system: SNB-19 CNS
SR leukemia = system: SR leukemia
SW-620 colon = system: SW-620 colon
T-47D breast = system: T-47D breast
TK-10 renal = system: TK-10 renal
U251 glioblastoma = system: U251 glioblastoma
UACC-257 melanoma = system: UACC-257 melanoma
UACC-62 melanoma = system: UACC-62 melanoma
UO-31 renal = system: UO-31 renal

CNC(C)C(=O)N[C@H](C(=O)N1CCC[C@@H]1CN(CCc1ccccc1)C(=O)C(F)(F)F)[C@H](C)OCC#CC#CCO[C@H](C)[C@H](NC(=O)[C@H](C)NC)C(=O)N1CCC[C@H]1CN(CCc1ccccc1)C(=O)C(F)(F)F (some centres not stated)
GI50 ([…]-0 renal): 1760 nM | TGI (786-0 renal): 3160 nM | GI50 (A498 renal): 2070 nM | TGI (A498 renal): 4560 nM | GI50 (A549 NSCLC): 3320 nM | TGI (A549 NSCLC): 17200 nM | GI50 (ACHN renal): > 100000 nM | TGI (ACHN renal): > 100000 nM | GI50 (BT-549 breast): < 10 nM | TGI (BT-549 breast): 2160 nM | GI50 (CAKI-1 renal): 6020 nM | TGI (CAKI-1 renal): 17700 nM | GI50 (CCRF-CEM leukemia): 25.3 nM | TGI (CCRF-CEM leukemia): 1430 nM | GI50 (COLO 205 colon): 1690 nM | TGI (COLO 205 colon): 3080 nM | GI50 (DU-145 prostate): 1740 nM | TGI (DU-145 prostate): 5180 nM | GI50 (HCC-2998 colon): 1310 nM | TGI (HCC-2998 colon): 2620 nM | GI50 (HCT-116 colon): 1920 nM | TGI (HCT-116 colon): 3350 nM | GI50 (HCT-15 colon): 21300 nM | TGI (HCT-15 colon): > 100000 nM | GI50 (HL-60(TB) leukemia): < 10 nM | TGI (HL-60(TB) leukemia): < 10 nM | GI50 (HOP-62 NSCLC): 906 nM | TGI (HOP-62 NSCLC): 2190 nM | GI50 (HOP-92 NSCLC): 310 nM | TGI (HOP-92 NSCLC): 1780 nM | GI50 (HT29 colon): 1690 nM | TGI (HT29 colon): 3100 nM | GI50 (IGROV1 ovarian): 5720 nM | TGI (IGROV1 ovarian): 83400 nM | GI50 (K-562 leukemia): 1810 nM | TGI (K-562 leukemia): 3230 nM | GI50 (KM12 colon): 1720 nM | TGI (KM12 colon): 3130 nM | GI50 (LOX IMVI melanoma): 2060 nM | TGI (LOX IMVI melanoma): 3510 nM | GI50 (M14 melanoma): 1800 nM | TGI (M14 melanoma): 3210 nM | GI50 (MCF7 breast): 1300 nM | TGI (MCF7 breast): 2590 nM | GI50 (MDA-MB-231 breast): < 10 nM | TGI (MDA-MB-231 breast): < 10 nM | GI50 (MDA-MB-435 melanoma): 98.1 nM | TGI (MDA-MB-435 melanoma): 1940 nM | GI50 (MDA-MB-468 breast): < 10 nM | TGI (MDA-MB-468 breast): 78.5 nM | GI50 (MOLT-4 leukemia): 1630 nM | TGI (MOLT-4 leukemia): 2990 nM | GI50 (NCI-H226 lung): 3390 nM | TGI (NCI-H226 lung): 16700 nM | GI50 (NCI-H23 lung): 268 nM | TGI (NCI-H23 lung): 7590 nM | GI50 (NCI-H322M lung): 5600 nM | TGI (NCI-H322M lung): 22700 nM | GI50 (NCI-H460 NSCLC): 1680 nM | TGI (NCI-H460 NSCLC): 3070 nM | GI50 (NCI-H522 lung): 906 nM | TGI (NCI-H522 lung): 2150 nM | GI50 (NCI/ADR-RES ovarian): > 100000 nM | TGI (NCI/ADR-RES ovarian): > 100000 nM | GI50 (OVCAR-3 ovarian): 1250 nM | TGI (OVCAR-3 ovarian): 2550 nM | GI50 (OVCAR-4 ovarian): < 10 nM | TGI (OVCAR-4 ovarian): < 10 nM | GI50 (OVCAR-5 ovarian): 58900 nM | TGI (OVCAR-5 ovarian): > 100000 nM | GI50 (OVCAR-8 ovarian): 1050 nM | TGI (OVCAR-8 ovarian): 2240 nM | GI50 (PC-3 prostate): 4080 nM | TGI (PC-3 prostate): 13400 nM | GI50 (RPMI-8226 leukemia): 617 nM | TGI (RPMI-8226 leukemia): 1940 nM | GI50 (RXF 393 renal): < 10 nM | TGI (RXF 393 renal): 62.5 nM | GI50 (SF-268 CNS): 1740 nM | TGI (SF-268 CNS): 3130 nM | GI50 (SF-295 CNS): 2650 nM | TGI (SF-295 CNS): 14500 nM | GI50 (SF-539 CNS): 1540 nM | TGI (SF-539 CNS): 2880 nM | GI50 (SK-MEL-2 melanoma): < 10 nM | TGI (SK-MEL-2 melanoma): < 10 nM | GI50 (SK-MEL-28 melanoma): 1450 nM | TGI (SK-MEL-28 melanoma): 2780 nM | GI50 (SK-MEL-5 melanoma): 149 nM | TGI (SK-MEL-5 melanoma): 730 nM | GI50 (SK-OV-3 ovarian): < 10 nM | TGI (SK-OV-3 ovarian): 71.9 nM | GI50 (SN12C renal): 2340 nM | TGI (SN12C renal): 4060 nM | GI50 (SNB-19 CNS): 6770 nM | TGI (SNB-19 CNS): 21400 nM | GI50 (SR leukemia): 342 nM | TGI (SR leukemia): 1960 nM | GI50 (SW-620 colon): 1820 nM | TGI (SW-620 colon): 3240 nM | GI50 (T-47D breast): 1600 nM | TGI (T-47D breast): 2960 nM | GI50 (TK-10 renal): 2520 nM | TGI (TK-10 renal): 5600 nM | GI50 (U251 glioblastoma): 1710 nM | TGI (U251 glioblastoma): 3100 nM | GI50 (UACC-257 melanoma): 1600 nM | TGI (UACC-257 melanoma): 2960 nM | GI50 (UACC-62 melanoma): 1730 nM | TGI (UACC-62 melanoma): 3120 nM | GI50 (UO-31 renal): > 100000 nM | TGI (UO-31 renal): > 100000 nM

Source: PubChem BioAssay (NCI)
